Measurements taken from ChEMBL document CHEMBL1201862, “PubChem BioAssay data set” (2004).
Activity calls are given as the source filed them.

Tests used:
[1] = molecular target: T1, Neuropeptide Y receptor type 2 (Homo sapiens, UniProt P49146); assay: Fluorescence-based cell-based high-throughput dose response assay for potentiators or agonists of NPY-Y2. [Related pubchem assays: 1539 (Screening assay (NPY-Y2 potentiators or agonists).), 1703 (Screening assay (CNGC inhibitors).), 1359 (Screening assay (NPY-Y2 potentiators or agonists).), 1304 (Screening assay (NPY-Y1 potentiators or agonists).) …; format: functional
T1 sequence (P49146 whole entry): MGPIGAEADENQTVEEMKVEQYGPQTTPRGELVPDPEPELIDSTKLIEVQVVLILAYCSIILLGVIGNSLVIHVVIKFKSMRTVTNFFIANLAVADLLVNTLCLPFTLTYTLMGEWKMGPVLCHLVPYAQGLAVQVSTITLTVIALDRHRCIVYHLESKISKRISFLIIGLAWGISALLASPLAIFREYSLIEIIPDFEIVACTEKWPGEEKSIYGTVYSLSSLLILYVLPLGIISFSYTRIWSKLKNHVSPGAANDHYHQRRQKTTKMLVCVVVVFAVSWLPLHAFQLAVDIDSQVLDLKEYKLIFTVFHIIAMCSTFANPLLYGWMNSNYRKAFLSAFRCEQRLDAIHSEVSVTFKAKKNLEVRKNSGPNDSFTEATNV

[2] = molecular target: T2, Neuropeptide Y receptor type 1 (Homo sapiens, UniProt P25929); assay: Fluorescence-based counterscreen for potentiators or agonists of NPY-Y2: cell-based high-throughput dose response assay for potentiators or agonists of NPY-Y1.; format: functional
T2 sequence (P25929 whole entry): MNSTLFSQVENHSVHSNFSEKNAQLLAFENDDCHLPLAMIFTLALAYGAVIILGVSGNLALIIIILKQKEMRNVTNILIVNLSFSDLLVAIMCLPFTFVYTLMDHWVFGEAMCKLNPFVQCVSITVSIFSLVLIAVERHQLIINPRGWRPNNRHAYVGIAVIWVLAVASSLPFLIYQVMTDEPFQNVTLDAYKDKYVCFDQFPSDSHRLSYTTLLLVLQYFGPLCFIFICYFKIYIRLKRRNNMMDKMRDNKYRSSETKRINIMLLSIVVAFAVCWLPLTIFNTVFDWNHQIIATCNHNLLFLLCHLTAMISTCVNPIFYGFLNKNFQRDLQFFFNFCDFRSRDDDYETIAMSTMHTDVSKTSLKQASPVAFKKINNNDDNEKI

[3] = molecular target: T1, Neuropeptide Y receptor type 2; assay: Fluorescence-based cell-based high-throughput dose response assay for agonists of NPY-Y2. [Related pubchem assays: 1703 (Screening assay (CNGC inhibitors).), 1359 (Screening assay (NPY-Y2 potentiators or agonists).), 1304 (Screening assay (NPY-Y1 potentiators or agonists).), 1710 (Screening assay (NPY-Y2 agonists).), 1791 (Summary AID.)]; format: functional
[4] = molecular target: T2, Neuropeptide Y receptor type 1; assay: Fluorescence-based counterscreen for agonists of NPY-Y2: cell-based high-throughput dose response assay for agonists of NPY-Y1.; format: functional
HEK293 = assay: Fluorescence-based counterscreen for potentiators or agonists of NPY-Y2: cell-based high-throughput dose response assay to identify inhibitors of cyclic nucleotide gated ion channel (CNGC) activity. In this assay, the parental HEK293 cell line transfected with a cyclic-nucleotide gated ion channel (CNGC)-based cAMP sensor is used to measure inhibition of isoproterenol-induced CNGC activity by test compound.; format: functional; conditions: Homo sapiens
Staphylococcus aureus = assay: Inhibitors of Bacterial Quorum Sensing Structure Activity Relationship (SAR) Analysis: Dose Response Assay. [Related pubchem assays: 700, 527 ]; format: functional, organism-based
Vero [5] = assay: host cell viability loss, Vero E6 – synthesized analogs, cytotoxicity control for West Nile virus antiviral project, SAR follow-up (AID 2244); format: functional; conditions: Chlorocebus sabaeus
Vero [6] = assay: Vero cell viability after compound exposure – synthesized analogs, set II, cytotoxicity control for West Nile virus antiviral project, SAR follow-up (AID 2402); format: functional; conditions: Chlorocebus sabaeus
[7] = molecular target: 5-hydroxytryptamine receptor 1E (Homo sapiens, UniProt P28566); assay: Counterscreen assay for S1P3 antagonists: Dose response cell-based high throughput screening assay to identify antagonists of the 5-Hydroxytryptamine Receptor Subtype 1E (5HT1E). [Related pubchem assays: 1429, 485 ]; format: functional
[8] = molecular target: Sphingosine 1-phosphate receptor 3 (Homo sapiens, UniProt Q99500); assay: Dose response cell-based high throughput screening assay for antagonists of the Sphingosine 1-Phosphate Receptor 3 (S1P3). [Related pubchem assays: 1429, 485 ]; format: functional
[9] = molecular target: Signal transducer and activator of transcription 3 (Homo sapiens, UniProt P40763); assay: STAT3 activation with BCL3 mRNA and toxicity – cell-based, […], BCL3 qPCR, cytotoxicity, late-stage follow-up, panel member STAT3 Activation (AID 2049)
[10] = molecular target: G2/mitotic-specific cyclin-B1 (Homo sapiens, UniProt P14635); assay: HeLa cell cycle G2/M accumulation – FACS, mechanism study for Wee1 degradation inhibitor project, late-stage follow-up, panel member Cyclin B Degradation (AID 2088)
Wee1-like protein kinase = Wee1-like protein kinase (Homo sapiens, UniProt P30291); assay: HeLa cell cycle G2/M accumulation – FACS, mechanism study for Wee1 degradation inhibitor project, late-stage follow-up, panel member Wee1 Degradation (AID 2088)
[11] = molecular target: Induced myeloid leukemia cell differentiation protein Mcl-1 (Homo sapiens, UniProt Q07820); format: functional
[12] = molecular target: T3, Mannose-6-phosphate isomerase (Homo sapiens, UniProt P34949); assay: MPI enzyme activity inhibition – biochemical, fluorescence intensity, coupled assay, primary screen (AID 1209)
T3 sequence (P34949 whole entry): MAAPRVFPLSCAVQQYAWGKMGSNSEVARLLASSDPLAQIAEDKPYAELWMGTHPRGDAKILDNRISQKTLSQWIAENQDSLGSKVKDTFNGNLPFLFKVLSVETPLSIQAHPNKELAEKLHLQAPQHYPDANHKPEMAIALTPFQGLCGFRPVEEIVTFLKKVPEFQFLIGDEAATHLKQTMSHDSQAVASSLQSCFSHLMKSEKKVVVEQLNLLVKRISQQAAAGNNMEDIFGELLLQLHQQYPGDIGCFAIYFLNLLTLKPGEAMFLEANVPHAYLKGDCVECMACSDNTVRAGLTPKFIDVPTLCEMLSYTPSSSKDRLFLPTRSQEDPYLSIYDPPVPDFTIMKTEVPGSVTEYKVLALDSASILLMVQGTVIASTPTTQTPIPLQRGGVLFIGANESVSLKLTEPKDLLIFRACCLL

[13] = antiviral protection against BTV-induced cell death – arbovirus, BSR cells, confirmation (AID 1250); format: functional;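 also: protection from viral cytopathic effect measured as cell viability by ATP luminescence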
[14] = molecular target: T3, Mannose-6-phosphate isomerase; assay: MPI inhibition at elevated mannose 6-phosphate – biochemical, fluorescence intensity, high mannose 6-phosphate, primary screen (AID 1220)
Cytochrome P450 3A4 = Cytochrome P450 3A4 (Homo sapiens, UniProt P08684); conditions: Potency;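 also: confirmatory qHTS run detecting inhibitors and substrates of CYP3A4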
[15] = Luminescence Cell-Based Dose Confirmation HTS to Identify Inhibitors of Polyadenylation.; format: functional

Chain of Wee1-like protein kinase (P30291 whole entry): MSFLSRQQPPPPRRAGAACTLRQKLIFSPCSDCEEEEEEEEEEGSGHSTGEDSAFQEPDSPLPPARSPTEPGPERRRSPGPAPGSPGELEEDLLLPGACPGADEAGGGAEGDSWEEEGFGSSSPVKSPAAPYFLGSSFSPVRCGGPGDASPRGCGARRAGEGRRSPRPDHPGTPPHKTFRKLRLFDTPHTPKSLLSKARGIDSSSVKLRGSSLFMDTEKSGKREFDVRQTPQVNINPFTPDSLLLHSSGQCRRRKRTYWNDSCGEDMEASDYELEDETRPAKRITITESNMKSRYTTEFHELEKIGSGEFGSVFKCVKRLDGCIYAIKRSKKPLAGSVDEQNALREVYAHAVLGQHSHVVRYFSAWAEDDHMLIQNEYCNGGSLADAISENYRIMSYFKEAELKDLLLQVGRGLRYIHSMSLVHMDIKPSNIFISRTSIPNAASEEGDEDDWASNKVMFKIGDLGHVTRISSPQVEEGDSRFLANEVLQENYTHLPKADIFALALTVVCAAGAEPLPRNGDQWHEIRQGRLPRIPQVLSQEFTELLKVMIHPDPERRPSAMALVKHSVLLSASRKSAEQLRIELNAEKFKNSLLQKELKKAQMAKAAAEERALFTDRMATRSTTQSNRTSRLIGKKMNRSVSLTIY
Chain of Cytochrome P450 3A4 (P08684 whole entry): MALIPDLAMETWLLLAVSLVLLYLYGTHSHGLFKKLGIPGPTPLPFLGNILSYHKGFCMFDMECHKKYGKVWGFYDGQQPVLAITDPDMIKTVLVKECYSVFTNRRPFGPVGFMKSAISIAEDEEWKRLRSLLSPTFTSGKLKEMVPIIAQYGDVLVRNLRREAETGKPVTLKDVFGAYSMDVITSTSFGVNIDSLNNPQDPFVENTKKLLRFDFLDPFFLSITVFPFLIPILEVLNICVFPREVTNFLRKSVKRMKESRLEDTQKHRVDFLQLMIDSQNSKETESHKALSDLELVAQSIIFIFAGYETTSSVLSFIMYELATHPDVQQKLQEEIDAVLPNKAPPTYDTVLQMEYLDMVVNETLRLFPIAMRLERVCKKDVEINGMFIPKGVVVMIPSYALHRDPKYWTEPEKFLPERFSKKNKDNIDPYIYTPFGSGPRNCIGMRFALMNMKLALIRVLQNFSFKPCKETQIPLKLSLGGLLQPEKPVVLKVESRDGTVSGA
Chain of 5-hydroxytryptamine receptor 1E (P28566 whole entry): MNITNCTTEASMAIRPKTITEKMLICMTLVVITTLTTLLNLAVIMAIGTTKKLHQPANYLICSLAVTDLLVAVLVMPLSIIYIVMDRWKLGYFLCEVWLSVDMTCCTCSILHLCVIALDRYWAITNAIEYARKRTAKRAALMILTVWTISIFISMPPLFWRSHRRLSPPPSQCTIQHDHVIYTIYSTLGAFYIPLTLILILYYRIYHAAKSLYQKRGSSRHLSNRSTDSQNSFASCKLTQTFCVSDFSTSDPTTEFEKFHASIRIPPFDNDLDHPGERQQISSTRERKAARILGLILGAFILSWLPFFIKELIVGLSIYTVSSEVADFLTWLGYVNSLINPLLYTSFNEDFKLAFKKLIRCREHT
Chain of Sphingosine 1-phosphate receptor 3 (Q99500 whole entry): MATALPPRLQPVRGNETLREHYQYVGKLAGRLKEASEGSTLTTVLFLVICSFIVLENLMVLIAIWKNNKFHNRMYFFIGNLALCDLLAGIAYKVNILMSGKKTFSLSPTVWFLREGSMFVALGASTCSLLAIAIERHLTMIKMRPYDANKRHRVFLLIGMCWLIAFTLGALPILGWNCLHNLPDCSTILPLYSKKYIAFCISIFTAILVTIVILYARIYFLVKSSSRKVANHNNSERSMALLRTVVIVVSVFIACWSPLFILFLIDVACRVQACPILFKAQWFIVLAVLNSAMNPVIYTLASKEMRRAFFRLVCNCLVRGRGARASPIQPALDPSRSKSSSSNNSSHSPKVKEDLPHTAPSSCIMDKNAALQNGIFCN
Chain of G2/mitotic-specific cyclin-B1 (P14635 whole entry): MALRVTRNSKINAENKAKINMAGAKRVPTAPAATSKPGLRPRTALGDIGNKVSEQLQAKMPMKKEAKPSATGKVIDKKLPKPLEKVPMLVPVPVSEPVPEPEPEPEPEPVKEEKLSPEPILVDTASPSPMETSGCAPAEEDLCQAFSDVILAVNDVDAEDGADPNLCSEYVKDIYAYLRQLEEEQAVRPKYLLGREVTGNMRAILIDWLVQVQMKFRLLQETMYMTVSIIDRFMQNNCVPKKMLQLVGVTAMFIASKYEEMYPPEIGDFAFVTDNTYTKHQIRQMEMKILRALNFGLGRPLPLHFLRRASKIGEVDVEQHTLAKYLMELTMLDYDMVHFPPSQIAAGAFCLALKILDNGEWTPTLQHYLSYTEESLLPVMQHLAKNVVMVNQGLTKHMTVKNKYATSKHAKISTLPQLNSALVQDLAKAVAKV
Chain of Signal transducer and activator of transcription 3 (P40763 whole entry): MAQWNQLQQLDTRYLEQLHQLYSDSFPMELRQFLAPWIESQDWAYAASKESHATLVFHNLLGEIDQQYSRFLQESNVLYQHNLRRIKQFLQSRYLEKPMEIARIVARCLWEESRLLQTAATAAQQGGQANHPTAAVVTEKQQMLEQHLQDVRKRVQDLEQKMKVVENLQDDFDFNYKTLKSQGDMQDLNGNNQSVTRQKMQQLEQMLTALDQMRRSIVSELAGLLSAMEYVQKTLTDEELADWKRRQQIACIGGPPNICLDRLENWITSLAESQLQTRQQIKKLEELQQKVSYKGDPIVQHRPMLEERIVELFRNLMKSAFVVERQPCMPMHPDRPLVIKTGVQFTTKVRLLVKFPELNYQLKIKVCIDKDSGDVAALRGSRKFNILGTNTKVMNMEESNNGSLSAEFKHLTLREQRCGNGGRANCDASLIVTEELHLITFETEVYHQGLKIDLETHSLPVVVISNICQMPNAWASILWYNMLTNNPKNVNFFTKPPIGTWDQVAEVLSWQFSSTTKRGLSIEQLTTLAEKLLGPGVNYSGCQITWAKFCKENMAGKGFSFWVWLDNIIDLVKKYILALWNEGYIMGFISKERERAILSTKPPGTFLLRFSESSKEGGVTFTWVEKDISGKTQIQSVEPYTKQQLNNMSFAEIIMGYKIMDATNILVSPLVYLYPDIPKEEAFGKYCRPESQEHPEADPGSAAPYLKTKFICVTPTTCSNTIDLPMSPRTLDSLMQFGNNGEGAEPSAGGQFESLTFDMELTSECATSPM
Chain of Induced myeloid leukemia cell differentiation protein Mcl-1 (Q07820 whole entry): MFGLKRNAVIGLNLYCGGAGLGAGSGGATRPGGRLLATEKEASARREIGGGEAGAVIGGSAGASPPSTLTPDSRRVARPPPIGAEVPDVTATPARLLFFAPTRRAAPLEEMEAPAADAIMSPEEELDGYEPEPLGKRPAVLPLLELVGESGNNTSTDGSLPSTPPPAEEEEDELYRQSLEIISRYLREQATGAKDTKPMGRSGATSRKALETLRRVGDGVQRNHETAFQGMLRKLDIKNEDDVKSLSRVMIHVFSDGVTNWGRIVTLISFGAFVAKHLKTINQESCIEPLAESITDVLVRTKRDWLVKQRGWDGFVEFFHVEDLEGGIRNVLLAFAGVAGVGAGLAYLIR

## Cc1cccc2c(N)c3c(nc12)CCCC3.O=C(O)c1cc([N+](=O)[O-])ccc1Cl
[1]
  EC50: 5.24 µM (active)
[2]
  EC50: 5.53 µM (active)
[3]
  EC50: 3.65 µM (active)
[4]
  EC50: 3.41 µM (active)
HEK293
  EC50: 8.74 µM (active)

## CC(C)c1ccc(NC(=O)C(c2ccc3c(c2)OCO3)N2CCCCC2)cc1 (centres undefined)
Staphylococcus aureus
  IC50: 0.254 µM (active)

## O=c1c2cc(Cl)cc(Cl)c2nc2n1CCC2
Vero [5]
  CC50: > 40 µM (active)
Vero [6]
  CC50: > 100 µM (active)

## CSc1ccccc1NC(=O)C1CC(c2ccccc2O)=NO1 (centres undefined)
[7]
  IC50: > 50 µM (not active)
[8]
  IC50: > 50 µM (not active)

## COc1ccc(OC)c(NC(=O)c2cc(CN3CCCC3)on2)c1
[9]
  EC50: > 55.7 µM (inactive)

## Cc1cccc(CC(=O)Nc2cc(C)nn2-c2nc(C)cc(=O)[nH]2)c1
[10]
  EC50: > 49.7 µM (inactive)
Wee1-like protein kinase
  EC50: > 49.7 µM (inactive)

## Cc1cc(/N=C/c2c(O)ccc3cc(Br)ccc23)no1
[11]
  IC50: > 54 µM (not active)
[12]
  IC50: > 50 µM (not active)
[13]
  IC50: 31.8 µM (active)
[14]
  IC50: > 50 µM (not active)

## C[C@@H]1CCC2[C@@H](C)[C@@H](O)O[C@@H]3O[C@@]4(C)CC[C@@H]1[C@@]23OO4 (some centres undefined)
Cytochrome P450 3A4
  AC50: 12.6 µM (inconclusive)

## CC(C)=CCOc1c2ccoc2cc2oc(=O)ccc12 [ISOIMPERATORIN]
[15]
  EC50: > 120 µM (not active)
